Test results as given in US6747045B2, “(Benzodioxan, benzofuran or benzopyran) derivatives having fundic relaxation properties” (Janssen Pharmaceutica N.V., priority 1997, dated 2004).

Assays:
fundus of the stomach = test: Gastric tone measured by an electronic barostat in conscious dogs; assay type: in vivo; settings: conscious female beagle dogs; 0.63 mg/kg s.c.; 1 hour after administration of the test compound
Protocol: C.1. Gastric Tone Measured by an Electronic Barostat in Conscious Dogs
Gastric tone cannot be measured by manometric methods. Therefore an electronic barostat was used. This allows the study of the physiological pattern and regulation of gastric tone in conscious dogs and the influence of test-compounds on this tone.
The barostat consists of an air injection system which is connected by a double-lumen 14-French polyvinyl tube to an ultrathin flaccid polyethylene bag (maximal volume: ±700 ml). Variations in gastric tone were measured by recording changes in the volume of air within an intragastric bag, maintained at a constant pressure, or at varying pressure levels. The barostat maintains a constant pressure (preselected) within a flaccid air-filled bag introduced into the stomach, changing the volume of air within the bag by an electronic feedback system.
Thus, the barostat measures gastric motor activity (contraction or relaxation) as changes in intragastric volume (decrease or increase resp.) at a constant intragastric pressure. The barostat consists of a strain gauge linked by an electronic relay to an air injection-aspiration system. Both the strain gauge and the injection system are connected by means of double-lumen polyvinyl tube to an ultrathin polyethylene bag. A dial in the barostat allows selection of the pressure level to be maintained within the intragastric bag.
Female beagle dogs, weighing 7-17 kg, were trained to stand quietly in Pavlov frames. They were implanted with a gastric cannula under general anaesthesia and aseptic precautions. After a median laparotomy, an incision was made through the gastric wall in longitudinal direction between the greater and the lesser curve, 2 cm above the nerves of Latarjet. The cannula was secured to the gastric wall by means of a double purse string suture and brought out via a stub wound at the left quadrant of the hypochondrium. Dogs were allowed a recovery period of two weeks.
At the beginning of the experiment, the cannula was opened in order to remove any gastric juice or food remnants. If necessary, the stomach was cleansed with 40 to 50 ml lukewarm water. The ultrathin bag of the barostat was positioned into the fundus of the stomach through the gastric cannula. In order to ensure easy unfolding of the intragastric bag during the experiment, a volume of 150-200 ml was injected into the bag by raising the pressure to maximally 14 mm Hg (about 1.87 kPa) very briefly. This procedure was repeated twice. A stabilisation period of 1 hour was allowed. […]

basilar arteries = test: Vasoconstrictive activity on basilar artery; parameters: species or system pigs; settings: Sus scrofa; pig basilar artery segments, organ bath; response relative to serotonin 3×10^−7 M; estimated from three preparations; read-out: ED50-value (concentration causing 50% of the constrictive response obtained with serotonin)
Protocol: C.2 Vasoconstrictive Activity on Basilar Artery
Segments of basilar arteries taken from pigs (anaesthetised with sodium pentobarbital) were mounted for recording of isometric tension in organ baths. The preparations were bathed in Krebs-Henseleit solution. The solution was kept at 37° C. and gassed with a mixture of 95% O2-5% CO2. The preparations were stretched until a stable basal tensions of 2 grams was obtained.
The preparations were made to constrict with serotonin (3×10^−7 M). The response to the addition of serotonin was measured and subsequently the serotonin was washed away. This procedure was repeated until stable responses were obtained. Subsequently the test compound was administered to the organ bath and the constriction of the preparation was measured. This constrictive response was expressed as a percentage of the response to serotonin as measured previously.

Compound | EC50 (basilar arteries) | melting point | % effect (percentual effect on relaxation of the fundus) (fundus of the stomach)
O=C(O)C(=O)O.O=C1NCCCN1CCCNCC1CCc2ccccc2O1 (racemic) [Compound 1, (±)-1-[3-[[(3,4-dihydro-2H-1-benzopyran-2-yl)methyl]amino]-propyl]-tetrahydro-2(1H)-pyrimidinone ethanedioate(1:1)] | > 1000 nM | 226.3 °C | 23.0%
O=C(O)C(=O)O.S=C1NCCCN1CCCNCC1CCc2ccccc2O1 (racemic) [Compound 14, (±)-1-[3-[[(3,4-dihydro-2H-1-benzopyran-2-yl)-methyl]amino]propyl]tetrahydro-2(1H)-pyrimidinethione ethanedioate(1:1)] | > 1000 nM | 217.6 °C | 
NC(=O)Nc1nccn1C1CCN(CC2CCc3ccccc3O2)CC1 (racemic) [Compound 66, (±)-[1-[1-[(3,4-dihydro-2H-1-benzopyran-2-yl)methyl]-4-piperidinyl]-1H-imidazol-2-yl]urea] | > 1000 nM |  | 
N#CNc1nccn1C1CCN(CC2CCc3ccccc3O2)CC1 (stereo not drawn) [Compound 59, [1-[1-[(3,4-dihydro-2H-1-benzopyran-2-yl)methyl]-4-piperidinyl]1H-imidazol-2-yl]cyanamide] | > 1000 nM |  | 
(RR,SS)-1-[1-[2-(3,4-dihydro-2H-1-benzopyran-2-yl)-2-hydroxyethyl]-4-piperidinyl]-2-imidazolidinone [Compound 20] |  |  | 9.5%

Further lines, with some results ahead:

EC50 (basilar arteries) | melting point | Compound | % effect (percentual effect on relaxation of the fundus) (fundus of the stomach)
> 1000 nM | 94.7 °C | O=C1NCCCN1CCCN(Cc1ccccc1)CC1CCc2ccccc2O1 (racemic) [Compound 13, (±)-1-[3-[[(3,4-dihydro-2H-1-benzopyran-2-yl)methyl](phenylmethyl)amino]propyl]-tetrahydro-2(1H)-pyrimidinone] | 0.4%
590 nM | 177.5 °C | N#CN=C1NCCCN1CCCNCC1CCc2ccccc2O1 (racemic) [Compound 21, (±)-[1-[3-[[(3,4-dihydro-2H-1-benzopyran-2-yl)-methyl]-amino]propyl]hexahydro-2-pyrimidinylidene]cyanamide ethanedioate (1:1)] | 
> 1000 nM |  | O=C(O)C(=O)O.O=C1NCCCN1CCCNC[C@H]1CCc2ccccc2O1 [Compound 3, (R)-1-[3-[[(3,4-dihydro-2H-1-benzopyran-2-yl)methyl]amino]propyl]-tetrahydro-2(1H)-pyrimidinone ethanedioate (1:1)] | 36.2%
